Measured values published in paper PMC11397566, “Cytotoxic Natural Products from the Jurassic Relict Osmunda regalis L” (Molecules, 2024).

What was measured:
Format in all cases: cell-based
[1] = system: MOLM13 cells; test: Cytotoxicity (WST-1 metabolic activity) towards AML cell line MOLM13; details: for cytotoxic activity against the MOLM13 cells (in words): compared with a DMSO control, 72 hours of incubation; for EC50: Homo sapiens, MOLM-13, metabolic activity (WST-1) after 72 h of incubation, compounds diluted in DMSO, three independent experiments
Protocol: (§1) The pure compounds were diluted to create stock solutions with a final concentration of 20 mM in DMSO (Dimethyl Sulfoxide—for molecular biology, Sigma-Aldrich, Saint Louise, MO, USA). Normal rat kidney epithelial cells (NRK, ATCC no.: CRL-6509) and rat cardiomyoblasts (H9c2, ATCC no.: CRL-1446) were grown in DMEM medium enriched with 10% foetal bovine serum (FBS, Invitrogen, Carlsbad, CA, USA). Once the cells achieved 80% confluence, they were gently detached using trypsin treatment (0.33 mg/mL trypsin for 5 min at 37 °C), centrifuged (160× g, 4 min), and then reseeded in fresh medium to reach 25% confluence.
The AML cell line MOLM13 (DSMZ no.: ACC554, [39]) was maintained in RPMI-1640 medium supplemented with 10% FBS and 8 mM L-glutamine (Sigma Life Science, Dorset, UK). The cells were kept in suspension cultures with a density of 150,000 to 700,000 cells/mL.
(§2) All media were further supplemented with 1 IU/mL penicillin and 1 mg/mL streptomycin (both from Cambrex, Liège, Belgium) and incubated in a humidified environment (37 °C, 5% CO2). For the cytotoxicity experiments with compounds 11 to 15, the NRK and H9c2 cells were seeded in 96-well tissue culture plates (4000 cells/well, 0.1 mL) and left overnight to attach before treatments. The MOLM13 cells were seeded in 96-well tissue culture plates at 20,000 cells/well in 0.1 mL on the day of the experiment.
(§3) Compounds dissolved in DMSO were added to the cells, and the plates were incubated for 72 hours before adding the tetrazolium salt WST-1 according to the manufacturer’s instructions (Roche Diagnostics GmbH, Mannheim, Germany). The plates were further incubated for two hours before the signal was recorded at 450 nm with reference at 620 nm. For black subtraction, medium and plant compounds were added to WST-1. This procedure was performed after 24 and 72 h.
(§4) After recording WST-1, the cells were next fixed with 2% buffered formaldehyde (pH 7.4) with 0.01 mg/mL of the DNA-specific fluorescent dye, […]. As previously described, the presence of dead (apoptotic or necrotic) cells was verified by differential interference contrast and fluorescence microscopy.
(§5) EC50 values were determined by a four-parameter regression analysis as described by Viktorsson et al., using SigmaPlot ver. 14.0 (Systat Software Inc., San Jose, CA, USA).

[2] = system: NRK cells; test: Cytotoxicity (WST-1 metabolic activity) towards normal rat kidney epithelial cells NRK; details: for EC50: Rattus norvegicus, NRK, metabolic activity (WST-1) after 72 h of incubation, compounds diluted in DMSO, three experiments, "-" = no data available due to low or no toxicity
Protocol: as §1, §2, §3, §4, §5

[3] = system: H9c2 cells; test: Cytotoxicity (WST-1 metabolic activity) towards rat cardiomyoblasts H9c2; details: metabolic activity (WST-1) after 72 h of incubation, compounds diluted in DMSO, three independent experiments
Protocol: as §1, with “confluence. […]” for “confluence.”
as §3, with “For black subtraction, medium and plant compounds were added to WST-1. This procedure was performed after 24 and 72 h.” left out
as §4
EC50 values were determined by a four-parameter regression analysis as described by Viktorsson et al., using SigmaPlot ver. […]

Structure (SMILES) | cytotoxic activity against the MOLM13 cells (in words) [1] | further results
CC1OC(OC2C(OC3C(Oc4c(-c5ccc(O)cc5)oc5cc(O)cc(O)c5c4=O)OC(CO)C(O)C3O)OC(CO)C(O)C2O)C(O)C(O)C1O (stereo not drawn) [Compound 2, kaempferol 3-O-(2’’-O-(2’’’-α-rhamnopyranosyl)-β-glucopyranosyl)-β-glucopyranoside] | Only compounds 11 and 15, which are γ- and δ-lactones, respectively, exhibited significant cytotoxic activity | –
CC1OC(OC2C(OC3C(Oc4c(-c5ccc(O)c(O)c5)oc5cc(O)cc(O)c5c4=O)OC(CO)C(O)C3O)OC(CO)C(O)C2O)C(O)C(O)C1O (stereo not drawn) [Compound 3, quercetin 3-O-(2’’-O-(2’’’-α-rhamnopyranosyl)-β-glucopyranosyl)-β-glucopyranoside] | Only compounds 11 and 15, which are γ- and δ-lactones, respectively, exhibited significant cytotoxic activity | –
CC1OC(OC2C(OC3C(Oc4c(-c5ccc(O)cc5)oc5cc(O)cc(O)c5c4=O)OC(CO)C(O)C3O)OC(COC(=O)C=Cc3ccc(O)c(O)c3)C(O)C2O)C(O)C(O)C1O (stereo not drawn) [Compound 6, kaempferol 3-O-(2’’-O-(2’’’-O-α-rhamnopyranosyl-6’’’-O-(E)-caffeoyl-)-β-glucopyranosyl)-β-glucopyranoside] | Only compounds 11 and 15, which are γ- and δ-lactones, respectively, exhibited significant cytotoxic activity | –
COc1cc(C2Oc3c(OC)cc(CCCO)cc3[C@H]2CO)ccc1O[C@@H]1O[C@@H](C)[C@H](O)[C@@H](O)[C@H]1O (stereo partly drawn) [Compound 8, (7R,8S)-dihydrodehydrodiconiferyl alcohol 4-O-α-rhamnopyranoside] | Only compounds 11 and 15, which are γ- and δ-lactones, respectively, exhibited significant cytotoxic activity | –
COc1cc(C2OC2CO)ccc1O (centres unmarked) [Compound 10, epoxyconiferyl alcohol] | Only compounds 11 and 15, which are γ- and δ-lactones, respectively, exhibited significant cytotoxic activity | –
CC(O)C1C=CC(=O)O1 (centres unmarked) [Compound 11, 5-hydroxy-2-hexen-4-olide] | significant cytotoxic activity | EC50 [1]: 46.2 ± 0.07 µM; EC50 [2]: 49.6 ± 0.11 µM; EC50 [3]: 48.7 ± 0.18 µM
CO[C@H]1CC(=O)O[C@@H]1C(C)O (some centres unmarked) [Compound 12, 3-methoxy-5-hydroxy-4-olide] | Only compounds 11 and 15, which are γ- and δ-lactones, respectively, exhibited significant cytotoxic activity | –
CC(O)C1OC(=O)C(C2CC(=O)OC(C)C2O)C1O [Compound 13, (4R,5S,3’S,1’’S,4’R)-4-hydroxy-3-(3’-hydroxy-4’-(1-hydroxyethyl)-oxotetrahydrofuran-5-methyltetrahydropyranone] | Only compounds 11 and 15, which are γ- and δ-lactones, respectively, exhibited significant cytotoxic activity | –
CC1=CC(=O)CC(C)(C)C1CCC(C)O[C@@H]1O[C@H](CO)[C@@H](O)[C@H](O)[C@H]1O (stereo partly drawn) [Compound 14, blumenol C 9-O-β-glucopyranoside] | Only compounds 11 and 15, which are γ- and δ-lactones, respectively, exhibited significant cytotoxic activity | –
CC(O)C(=O)CCC(=O)OC1C=CC(=O)OC1C (centres unmarked) [Compound 15, 4-O-(5-hydroxy-4-oxohexanoyl) osmundalactone] | significant cytotoxic activity | EC50 [1]: 111.9 ± 0.07 µM; reduced metabolic activity in the NRK cells at the highest concentration tested ([2]; 200 μM, 72 h): did not detect reduced metabolic activity; EC50 [2]: > 200 µM; EC50 [3]: 102.7 ± 0.12 µM
